target: T1, rat NaPi-2b (Rattus norvegicus, UniProt Q9JJ09); assay: Sodium-dependent phosphate uptake of Xenopus oocytes which expressed NaPi-2b (32P); type: cell-based; settings: Xenopus oocytes expressing rat NaPi-2b, 32P radioactive phosphorus; read-out: IC50 (phosphate uptake inhibitory activity)
T1 construct: expressed in transfected cells; host or cells: Xenopus oocytes injected with cRNA
T1 sequence (Q9JJ09 1-695): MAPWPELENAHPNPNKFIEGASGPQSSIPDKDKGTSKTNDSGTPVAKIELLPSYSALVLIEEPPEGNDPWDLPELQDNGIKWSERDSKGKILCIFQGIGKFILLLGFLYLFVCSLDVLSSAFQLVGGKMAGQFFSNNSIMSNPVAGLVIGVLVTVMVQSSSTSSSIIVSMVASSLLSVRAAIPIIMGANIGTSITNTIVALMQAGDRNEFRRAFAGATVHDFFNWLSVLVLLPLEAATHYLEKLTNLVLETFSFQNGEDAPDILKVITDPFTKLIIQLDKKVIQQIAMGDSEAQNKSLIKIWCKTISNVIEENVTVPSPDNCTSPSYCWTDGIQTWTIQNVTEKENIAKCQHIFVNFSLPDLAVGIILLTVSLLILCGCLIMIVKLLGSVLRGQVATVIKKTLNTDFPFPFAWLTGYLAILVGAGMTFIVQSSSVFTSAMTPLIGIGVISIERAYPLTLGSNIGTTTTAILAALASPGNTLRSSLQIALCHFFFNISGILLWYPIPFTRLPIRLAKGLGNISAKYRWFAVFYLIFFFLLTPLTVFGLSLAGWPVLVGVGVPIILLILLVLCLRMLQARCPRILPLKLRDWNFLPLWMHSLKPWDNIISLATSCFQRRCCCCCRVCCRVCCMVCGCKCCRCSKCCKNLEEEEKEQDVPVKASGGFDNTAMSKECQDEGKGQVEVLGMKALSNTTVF
In short: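 Read-out is 32P phosphate uptake into Xenopus oocytes expressing rat intestinal NaPi-2b (cRNA injection, 2-day culture). Inhibition at 300 μM and 100 μM was derived from a single inhibition curve and given as percent.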

Point of comparison: `CC(O)CN(Cc1ccc(C(=O)Nc2ccc(Br)cc2C(=O)N/N=C/c2cccc(F)c2)cc1)CC(C)O` (centres unmarked) [Compound 720, 4-{[Bis-(2-hydroxy-propyl)-amino]-methyl}-N-[4-bromo-2-(3-fluoro-benzylidene-hydrazinocarbonyl)-phenyl]-benzamide], IC50 3.51 µM. Against it:
- O=C(Nc1ccc(Br)cc1C(=O)N/N=C/c1cccc(F)c1)c1ccc(CNCCN2CCOCC2)cc1 [Compound 713, N-[4-Bromo-2-(3-fluoro-benzylidene-hydrazinocarbonyl)-phenyl]-4-[(2-morpholin-4-yl-ethylamino)-methyl]-benzamide] — 4.4-fold higher, 15.5 µM
- O=C(Nc1ccc(Br)cc1C(=O)N/N=C/c1ccc(Cl)c(C(F)(F)F)c1)c1ccc(CNCCN2CCOCC2)cc1 [Compound 714, N-[4-Bromo-2-(4-chloro-3-trifluoromethyl-benzylidene-hydrazinocarbonyl)-phenyl]-4-[(2-morpholin-4-yl-ethylamino)-methyl]-benzamide] — within 1.5-fold, 3.52 µM
- Cc1cccc(/C=N/NC(=O)c2cc(Br)ccc2NC(=O)c2ccc(CN(CC(C)O)CC(C)O)cc2)c1 (centres unmarked) [Compound 718, 4-{[Bis-(2-hydroxy-propyl)-amino]-methyl}-N-[4-bromo-2-(3-methyl-benzylidene-hydrazinocarbonyl)-phenyl]-benzamide] — 2-fold higher, 6.91 µM
- CC(O)CN(Cc1ccc(C(=O)Nc2ccc(Br)cc2C(=O)N/N=C/c2ccc(F)cc2)cc1)CC(C)O (centres unmarked) [Compound 719, 4-{[Bis-(2-hydroxy-propyl)-amino]-methyl}-N-[4-bromo-2-(4-fluoro-benzylidene-hydrazinocarbonyl)-phenyl]-benzamide] — 2.7-fold higher, 9.59 µM
- CC(O)CN(Cc1ccc(C(=O)Nc2ccc(Br)cc2C(=O)N/N=C/c2ccc(Cl)c(C(F)(F)F)c2)cc1)CC(C)O (centres unmarked) [Compound 721, 4-{[Bis-(2-hydroxy-propyl)-amino]-methyl}-N-[4-bromo-2-(4-chloro-3-trifluoromethyl-benzylidene-hydrazinocarbonyl)-phenyl]-benzamide] — 6.4-fold higher, 22.3 µM
- COc1ccc(/C=N/NC(=O)c2cc(Br)ccc2NC(=O)c2ccc(CN(CC(C)O)CC(C)O)cc2)cc1 (centres unmarked) [Compound 722, 4-{[Bis-(2-hydroxy-propyl)-amino]-methyl}-N-[4-bromo-2-(4-methoxy-benzylidene-hydrazinocarbonyl)-phenyl]-benzamide] — 3.6-fold higher, 12.8 µM
- COc1cccc(/C=N/NC(=O)c2cc(Br)ccc2NC(=O)c2ccc(CN(CC(C)O)CC(C)O)cc2)c1 (centres unmarked) [Compound 723, 4-{[Bis-(2-hydroxy-propyl)-amino]-methyl}-N-[4-bromo-2-(3-methoxy-benzylidene-hydrazinocarbonyl)-phenyl]-benzamide] — 5.1-fold higher, 18 µM
- Cc1ccc(/C=N/NC(=O)c2cc(Br)ccc2NC(=O)c2ccc(CN(C)CC(O)c3ccc(O)cc3)cc2)cc1C (centres unmarked) [Compound 724, N-[4-Bromo-2-(3,4-dimethyl-benzylidene-hydrazinocarbonyl)-phenyl]-4-({[2-hydroxy-2-(4-hydroxy-phenyl)-ethyl]-methyl-amino}-methyl)-benzamide] — 4.9-fold higher, 17.1 µM

same assay, conditions: phosphate uptake, oocytes expressing rat NaPi-2b; 300 μM, determined from inhibition curve

Point of comparison: `Cc1ccc(/C=N/NC(=O)c2cc(Cl)ccc2NC(=O)c2cccc(CN(C)CCCCCCN(C)Cc3cccc(C(=O)Nc4ccc(Cl)cc4C(=O)N/N=C/c4ccc(C)cc4)c3)c2)cc1` [Compound 706, N1-[4-Chloro-2-({2-[(E)-1-(4-methylphenyl)methylidene]hydrazino}carbonyl}phenyl}-3-{[{6-[(3-{[4-chloro-2-({2-[(E)-1-(4-methylphenyl)methylidene]hydrazino}carbonyl}-anilino}carbonyl}benzyl}(methyl)amino)hexyl)(methyl)amino]methyl]-benzamide], inhibition at 300 µM 47.8%. Against it:
- Cc1ccc(/C=N/NC(=O)c2cc(Cl)ccc2NC(=O)c2cccc(CN(C)CCCN(C)Cc3cccc(C(=O)Nc4ccc(Cl)cc4C(=O)N/N=C/c4ccc(C)cc4)c3)c2)cc1 [Compound 702, N1-[4-Chloro-2-({2-[(E)-1-(4-methylphenyl)methylidene]-hydrazino}carbonyl}phenyl}-3-{[{3-[(3-{[4-chloro-2-({2-[(E)-1-(4-methylphenyl)methylidene]hydrazino}carbonyl}anilino}carbonyl}benzyl}(methyl)amino)propyl)(methyl)amino]methyl]benzamide] — higher, 49.2%
- O=c1c2cc(Cl)ccc2nc(-c2cccc(CSCCS(=O)(=O)O)c2)n1/N=C/c1ccc(Cl)c(C(F)(F)F)c1 [Compound 703, 2-(3-{6-Chloro-3-[(4-chloro-3-trifluoromethyl-benzylidene)-amino]-4-oxo-3,4-dihydro-quinazolin-2-yl}-benzylsulfanyl)-ethanesulfonic acid] — higher, 57.9%
- CN(CCCCCCN(C)Cc1cccc(C(=O)Nc2ccc(Cl)cc2C(=O)N/N=C/c2cccc(F)c2)c1)Cc1cccc(C(=O)Nc2ccc(Cl)cc2C(=O)N/N=C/c2cccc(F)c2)c1 [Compound 704, N1-[4-Chloro-2-({2-[(E)-1-(3-fluorophenyl)methylidene]hydrazino}carbonyl}phenyl}-3-{[{6-[(3-{[4-chloro-2-({2-[(E)-1-(3-fluorophenyl)methylidene]hydrazino}carbonyl}-anilino}carbonyl}benzyl}(methyl)amino)hexyl)(methyl)amino]methyl]-benzamide] — lower, 46.6%
- Cc1cccc(/C=N/NC(=O)c2cc(Cl)ccc2NC(=O)c2cccc(CN(C)CCCCCCN(C)Cc3cccc(C(=O)Nc4ccc(Cl)cc4C(=O)N/N=C/c4cccc(C)c4)c3)c2)c1 [Compound 705, N1-[4-Chloro-2-({2-[(E)-1-(3-methylphenyl)methylidene]hydrazino}carbonyl}phenyl}-3-{[{6-[(3-{[4-chloro-2-({2-[(E)-1-(3-methylphenyl)methylidene]hydrazino}carbonyl}-anilino}carbonyl}benzyl}(methyl)amino)hexyl)(methyl)amino]methyl]-benzamide] — lower, 44.7%
- Cc1csc(C(=O)N/N=C/c2ccc(Cl)c(C(F)(F)F)c2)c1NC(=O)c1cccc(CN(CC(C)O)CC(C)O)c1 (centres unmarked) [Compound 707, 3-{[Bis-(2-hydroxy-propyl)-amino]-methyl}-N-[2-(4-chloro-3-trifluoromethyl-benzylidene-hydrazinocarbonyl)-4-methyl-thiophen-3-yl]-benzamide] — lower, 41.2%
- O=C(Nc1ccc(Cl)cc1C(=O)N/N=C/c1ccc(F)cc1)c1cccc(CSCCS(=O)(=O)O)c1 [Compound 708, 2-{3-[4-Chloro-2-(4-fluoro-benzylidene-hydrazinocarbonyl)-phenylcarbamoyl]-benzylsulfanyl}-ethanesulfonic acid] — lower, 42%
- O=C(Nc1ccc(Cl)cc1C(=O)N/N=C/c1ccc(Cl)c(C(F)(F)F)c1)c1cccc(CSCCS(=O)(=O)O)c1 [Compound 709, 2-{3-[4-Chloro-2-(4-chloro-3-trifluoromethyl-benzylidene-hydrazinocarbonyl)-phenylcarbamoyl]-benzylsulfanyl}-ethanesulfonic acid] — higher, 59.4%
- CCN(CC)CCN(C)Cc1cccc(C(=O)Nc2c(C)csc2C(=O)N/N=C/c2ccc(C)cc2)c1 [Compound 710, 3-{[(2-Diethylamino-ethyl)-methyl-amino]-methyl}-N-[4-methyl-2-(4-methyl-benzylidene-hydrazinocarbonyl)-thiophen-3-yl]-benzamide] — higher, 83.1%
- CCN(CC)CCN(C)Cc1cccc(C(=O)Nc2c(C)csc2C(=O)N/N=C/c2ccc(C)c(C)c2)c1 [Compound 711, 3-{[(2-Diethylamino-ethyl)-methyl-amino]-methyl}-N-[2-(3,4-dimethyl-benzylidene-hydrazinocarbonyl)-4-methyl-thiophen-3-yl]-benzamide] — higher, 81%
- COc1ccc(/C=N/NC(=O)c2cc(Br)ccc2NC(=O)c2ccc(CNCCN3CCOCC3)cc2)cc1 [Compound 715, N-[4-Bromo-2-(4-methoxy-benzylidene-hydrazinocarbonyl)-phenyl]-4-[(2-morpholin-4-yl-ethylamino)-methyl]-benzamide] — higher, 84.1%
- COc1cccc(/C=N/NC(=O)c2cc(Br)ccc2NC(=O)c2ccc(CNCCN3CCOCC3)cc2)c1 [Compound 716, N-[4-Bromo-2-(3-methoxy-benzylidene-hydrazinocarbonyl)-phenyl]-4-[(2-morpholin-4-yl-ethylamino)-methyl]-benzamide] — higher, 85.8%
- Cc1ccc(/C=N/NC(=O)c2cc(Br)ccc2NC(=O)c2ccc(CN3CCN(c4ccc(F)cc4)CC3)cc2)cc1C [Compound 717, N-[4-Bromo-2-(3,4-dimethyl-benzylidene-hydrazinocarbonyl)-phenyl]-4-[4-(4-fluoro-phenyl)-piperazin-1-ylmethyl]-benzamide] — higher, 53.5%

`CCN(CC)CCN(C)Cc1cccc(C(=O)Nc2c(C)csc2C(=O)N/N=C/c2ccc(OC)cc2)c1` [Compound 712, 3-{[(2-Diethylamino-ethyl)-methyl-amino]-methyl}-N-[2-(4-methoxy-benzylidene-hydrazinocarbonyl)-4-methyl-thiophen-3-yl]-benzamide] was tested, and the “Inhibition (%) (300 μM)” value was 48.73%.
